# Literature values as cited in patent US20070072885A1, “BICYCLIC DERIVATIVES FOR THE TREATMENT OF ABNORMAL CELL GROWTH” (Pfizer Inc, priority 2005, published 2007).
# Assays:
# [1] = system: another carcinoma which does not express the EGF receptor
# [2] = system: transplanted human mammary carcinoma which expresses epidermal growth factor receptor tyrosine kinase (EGFR); settings: EGFR-expressing carcinoma in athymic nude mice
smiles,measurement,setting,value
O=CN/C=C/c1cc(O)ccc1O [erbstatin],growth of another carcinoma,[1],without effect
same,growth of transplanted human mammary carcinoma,[2],selectively attenuates the growth
